Test results from PubChem BioAssay AID1259407 (Chemical Carcinogenesis Research Information System (CCRIS), 2018).
Active and inactive are the calls of the source. No rule for the calls is given here.

Test system: CCRIS mutagenicity, Ames/micronucleus/aberration tests
Assay: CCRIS mutagenicity studies
[1] = Test System: AMES SALMONELLA TYPHIMURIUM, Strain/Indicator: TA98, Metabolic Activation: RAT, LIVER, S-9, AROCLOR 1254, Method: STANDARD PLATE
[2] = Test System: AMES SALMONELLA TYPHIMURIUM, Strain/Indicator: TA100, Metabolic Activation: NONE, Method: PREINCUBATION
[3] = Test System: AMES SALMONELLA TYPHIMURIUM, Strain/Indicator: TA100, Metabolic Activation: NONE, Method: STANDARD PLATE

Measured: mutagenic call

c1ccc2ncccc2c1
inactive: End Point: IN VITRO CHROMOSOMAL ABERRATIONS, Test System: CHL CELLS, Metabolic Activation: NONE inactive; negative | End Point: IN VIVO MICRONUCLEUS, Test System: PERIPHERAL BLOOD RETICULOCYTES, Species: RAT, Strain/Sex: FISHER 344 OR SD/MALE, Route: ORAL OR IP inactive; negative; significant increase at 150 mg/kg | Test System: AMES SALMONELLA TYPHIMURIUM, Strain/Indicator: TA98, Metabolic Activation: NONE, Method: PREINCUBATION inactive; negative | [2] inactive; negative | Test System: AMES SALMONELLA TYPHIMURIUM, Strain/Indicator: TA1535, Metabolic Activation: NONE, Method: PREINCUBATION inactive; negative | Test System: AMES SALMONELLA TYPHIMURIUM, Strain/Indicator: TA1535, Metabolic Activation: RAT, LIVER, S-9, AROCLOR 1254, Method: STANDARD PLATE inactive; negative | Test System: AMES SALMONELLA TYPHIMURIUM, Strain/Indicator: TA1537, Metabolic Activation: NONE, Method: PREINCUBATION inactive; negative | Test System: E. COLI, Strain/Indicator: WP2UVRA, Metabolic Activation: NONE, Method: PREINCUBATION inactive; negative | Test System: UDS RODENT HEPATOCYTES, Strain/Indicator: THY INCORP (NON-S-PHASE), Metabolic Activation: IN VIVO, Method: AUTORADIOGRAPHY inactive; negative
active: End Point: IN VITRO CHROMOSOMAL ABERRATIONS, Test System: CHL CELLS, Metabolic Activation: RAT, LIVER, S-9, SODIUM PHENOBARBITAL AND 5,6-BENZOFLAVONE active; positive (structural changes) | End Point: IN VIVO MICRONUCLEUS, Test System: HEPATOCYTES, Species: RAT, Strain/Sex: FISHER 344 OR SD/MALE, Route: ORAL OR IP active; positive | End Point: In vitro chromosomal aberrations, Test System: Chinese hamster lung fibroblast cells (CHL/IU), Metabolic Activation: Rat, liver, S-9 active; positive (information derived from figure) | End Point: In vitro micronucleus, Test System: Chinese hamster lung fibroblast cells (CHL/IU), Metabolic Activation: Rat, Liver, S-9 active; positive, cytotoxic at 0.1 mg/ml (information derived from a figure) | End Point: In vitro micronucleus, Test System: Chinese hamster lung fibroblast cells (CHL/IU), Metabolic Activation: Rat, liver, S-9 active; positive (information derived from a figure) | End Point: In vivo micronucleus, Test System: Micronucleated hepatocytes, Species: Rat, Strain/Sex: F344/Male, Route: Oral active; positive (p<0.05) | Test System: AMES SALMONELLA TYPHIMURIUM, Strain/Indicator: TA98, Metabolic Activation: RAT LIVER S-9, PHENOBARBITAL AND BETA-NAPHTHOFLAVONE, Method: PREINCUBATION active; positive | Test System: AMES SALMONELLA TYPHIMURIUM, Strain/Indicator: TA98, Metabolic Activation: RAT, LIVER, S-9, (5%, 10% OR 20%) AROCLOR 1254, Method: STANDARD PLATE active; positive | [1] active; positive | Test System: AMES SALMONELLA TYPHIMURIUM, Strain/Indicator: TA98, Metabolic Activation: RAT, LIVER, S-9, KC500 OR PHENOBARBITAL, Method: LIQUID SUSPENSION active; positive | Test System: AMES SALMONELLA TYPHIMURIUM, Strain/Indicator: TA98, Metabolic Activation: RAT, LIVER, S-9, PCB, Method: PREINCUBATION active; positive | Test System: AMES SALMONELLA TYPHIMURIUM, Strain/Indicator: TA98, Metabolic Activation: RAT, LIVER, S-9, Method: PREINCUBATION active; positive | Test System: AMES SALMONELLA TYPHIMURIUM, Strain/Indicator: TA100, Metabolic Activation: RAT LIVER S-9, PHENOBARBITAL AND 5,6-BENZOFLAVONE, Method: PREINCUBATION active; positive | Test System: AMES SALMONELLA TYPHIMURIUM, Strain/Indicator: TA100, Metabolic Activation: RAT LIVER S-9, PHENOBARBITAL AND BETA-NAPHTHOFLAVONE, Method: PREINCUBATION active; positive | Test System: AMES SALMONELLA TYPHIMURIUM, Strain/Indicator: TA100, Metabolic Activation: RAT, LIVER, S-9 (5%, 10% OR 20%) AROCLOR 1254, Method: STANDARD PLATE active; positive | Test System: AMES SALMONELLA TYPHIMURIUM, Strain/Indicator: TA100, Metabolic Activation: RAT, LIVER, S-9, (5%, 10% OR 20%,) AROCLOR 1254, Method: STANDARD PLATE active; positive | Test System: AMES SALMONELLA TYPHIMURIUM, Strain/Indicator: TA100, Metabolic Activation: RAT, LIVER, S-9, AROCLOR 1254, Method: PREINCUBATION active; positive | Test System: AMES SALMONELLA TYPHIMURIUM, Strain/Indicator: TA100, Metabolic Activation: RAT, LIVER, S-9, KC500 OR PHENOBARBITAL, Method: LIQUID SUSPENSION active; positive | Test System: AMES SALMONELLA TYPHIMURIUM, Strain/Indicator: TA100, Metabolic Activation: RAT, LIVER, S-9, PCB, Method: STANDARD PLATE active; positive | Test System: AMES SALMONELLA TYPHIMURIUM, Strain/Indicator: TA100, Metabolic Activation: RAT, LIVER, S-9, PHENOBARBITAL AND 5,6-BENZOFLAVONE, Method: PREINCUBATION active; positive | Test System: AMES SALMONELLA TYPHIMURIUM, Strain/Indicator: TA100, Metabolic Activation: RAT, LIVER, S-9, PHENOBARBITAL AND 5,6-NAPHTHOFLAVONE, Method: PREINCUBATION active; positive | Test System: AMES SALMONELLA TYPHIMURIUM, Strain/Indicator: TA100, Metabolic Activation: RAT, LIVER, S-9, Method: PREINCUBATION active; positive | Test System: AMES SALMONELLA TYPHIMURIUM, Strain/Indicator: TA100, Metabolic Activation: S-9, Method: PREINCUBATION active; positive | Test System: E.COLI, Strain/Indicator: WP2UVRA, Metabolic Activation: RAT LIVER S-9, PHENOBARBITAL AND BETA-NAPHTHOFLAVONE, Method: PREINCUBATION active; positive | Test System: UDS RODENT HEPATOCYTES, Strain/Indicator: THY INCORP (NON-S-PHASE), Metabolic Activation: NONE, Method: AUTORADIOGRAPHY active; positive

CN(C)CCN(C)N=O
inactive: Test System: AMES SALMONELLA TYPHIMURIUM, Strain/Indicator: TA1535, Metabolic Activation: RAT, LIVER, S-9, Method: STANDARD PLATE inactive; negative
active: Test System: AMES SALMONELLA TYPHIMURIUM, Strain/Indicator: TA1535, Metabolic Activation: HAMSTER, LIVER, S-9, Method: STANDARD PLATE active; positive

C/C=C(\Cl)C=O
active: [2] active; positive | Test System: AMES SALMONELLA TYPHIMURIUM, Strain/Indicator: TA100, Metabolic Activation: NONE, Method: PREINCUBATION, LIQUID INCUBATION active; positive

c1cnc2ccc3c(c2c1)CC[C@@H]1O[C@H]31
inactive: [3] inactive; negative

C=CCOc1ccccc1OCC(O)CNC(C)C (stereo not given)
inactive: Test System: AMES SALMONELLA TYPHIMURIUM, Strain/Indicator: TA98, Metabolic Activation: NONE inactive; negative | Test System: AMES SALMONELLA TYPHIMURIUM, Strain/Indicator: TA98, Metabolic Activation: NONE, Method: STANDARD PLATE inactive; negative | Test System: AMES SALMONELLA TYPHIMURIUM, Strain/Indicator: TA98, Metabolic Activation: RAT, LIVER, S-9, AROCLOR 1254 inactive; negative | [1] inactive; negative | Test System: AMES SALMONELLA TYPHIMURIUM, Strain/Indicator: TA100, Metabolic Activation: NONE inactive; negative | [3] inactive; negative | Test System: AMES SALMONELLA TYPHIMURIUM, Strain/Indicator: TA100, Metabolic Activation: RAT, LIVER, S-9, AROCLOR 1254 inactive; negative | Test System: AMES SALMONELLA TYPHIMURIUM, Strain/Indicator: TA100, Metabolic Activation: RAT, LIVER, S-9, AROCLOR 1254, Method: STANDARD PLATE inactive; negative | Test System: AMES SALMONELLA TYPHIMURIUM, Strain/Indicator: TA1535, Metabolic Activation: NONE inactive; negative | Test System: AMES SALMONELLA TYPHIMURIUM, Strain/Indicator: TA1535, Metabolic Activation: RAT, LIVER, S-9, AROCLOR 1254 inactive; negative | Test System: AMES SALMONELLA TYPHIMURIUM, Strain/Indicator: TA1537, Metabolic Activation: NONE inactive; negative | Test System: AMES SALMONELLA TYPHIMURIUM, Strain/Indicator: TA1537, Metabolic Activation: RAT, LIVER, S-9, AROCLOR 1254 inactive; negative | Test System: CHINESE HAMSTER V-79, Strain/Indicator: V-79/6-THIOGUANINE, Metabolic Activation: NONE, Method: REPLATING inactive; negative | Test System: CHINESE HAMSTER V-79, Strain/Indicator: V-79/6-THIOGUANINE, Metabolic Activation: RAT, HEPATOCYTES, Method: REPLATING inactive; negative | Test System: UDS HUMAN HEPATOCYTES, Strain/Indicator: THY INCORP, Metabolic Activation: NONE, Method: AUTORADIOGRAPHY inactive; negative | Test System: UDS RAT HEPATOCYTES, Strain/Indicator: THY INCORP, Metabolic Activation: NONE, Method: AUTORADIOGRAPHY inactive; negative
